{"source": "PubChem BioAssay AID248", "about": "(DTP/NCI, 2004)", "test_system": "L1210 leukemia ip in BDF1 mice, survival T/C", "experiment": "NCI In Vivo Anticancer Drug Screen. Data for tumor model L1210 Leukemia (intraperitoneal) in B6D2F1 (BDF1) mice", "conditions": "endpoint: mean survival time, higher = longer survival", "outline": "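Value reflects the ratio of survival in compound-treated mice to survival in vehicle-treated controls, with both groups carrying the same transplanted tumor.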", "key": {"[1]": {"conditions": "dose: 100.0 mg/kg/injection, schedule: Q04DX003 (ip), vehicle: Klucel (hydroxypropylcellulose) (HPC)"}, "[2]": {"conditions": "dose: 200.0 mg/kg/injection, schedule: Q04DX003 (ip), vehicle: Klucel (hydroxypropylcellulose) (HPC)"}, "[3]": {"conditions": "dose: 400.0 mg/kg/injection, schedule: Q04DX003 (ip), vehicle: Klucel (hydroxypropylcellulose) (HPC)"}, "[4]": {"conditions": "dose: 100.0 mg/kg/injection, schedule: Q01DX001 (ip), vehicle: saline"}, "[5]": {"conditions": "dose: 200.0 mg/kg/injection, schedule: Q01DX001 (ip), vehicle: saline"}, "[6]": {"conditions": "dose: 100.0 mg/kg/injection, schedule: Q04DX003 (ip), vehicle: saline with Tween-80"}, "[7]": {"conditions": "dose: 200.0 mg/kg/injection, schedule: Q04DX003 (ip), vehicle: saline with Tween-80"}}, "note": "“And” between values parts separate entries of the source, which are not always exact repeats. Equal entries are not always repeated. Inconclusive results and toxic doses are left out.", "data": [{"smiles": "S=c1nc[nH]c2nc[nH]c12.[Ag]", "values": [{"measurement": "T/C", "setting": "dose: 3.0 mg/kg/injection, schedule: Q01DX009 (ip), vehicle: carboxymethylcellulose (CMC)", "result": "106 % of control and 92 % of control"}, {"measurement": "T/C", "setting": "dose: 6.0 mg/kg/injection, schedule: Q01DX009 (ip), vehicle: carboxymethylcellulose (CMC)", "result": "101 % of control"}, {"measurement": "T/C", "setting": "dose: 12.0 mg/kg/injection, schedule: Q01DX009 (ip), vehicle: carboxymethylcellulose (CMC)", "result": "113 % of control"}, {"measurement": "T/C", "setting": "dose: 50.0 mg/kg/injection, schedule: Q01DX009 (ip), vehicle: carboxymethylcellulose (CMC)", "result": "113 % of control and 119 % of control"}, {"measurement": "T/C", "setting": "dose: 400.0 mg/kg/injection, schedule: Q01DX009 (ip), vehicle: carboxymethylcellulose (CMC)", "result": "101 % of control"}, {"measurement": "T/C", "setting": "dose: 600.0 mg/kg/injection, schedule: Q01DX009 (ip), vehicle: carboxymethylcellulose (CMC)", "result": "154 % of control"}, {"measurement": "T/C", "setting": "dose: 800.0 mg/kg/injection, schedule: Q01DX009 (ip), vehicle: carboxymethylcellulose (CMC)", "result": "157 % of control and 159 % of control"}, {"measurement": "T/C", "setting": "dose: 800.0 mg/kg/injection, schedule: Q01DX009 (ip), vehicle: saline", "result": "154 % of control"}, {"measurement": "T/C", "setting": "dose: 1000.0 mg/kg/injection, schedule: Q01DX009 (ip), vehicle: carboxymethylcellulose (CMC)", "result": "119 % of control"}, {"measurement": "T/C", "setting": "dose: 1000.0 mg/kg/injection, schedule: Q01DX009 (ip), vehicle: saline", "result": "154 % of control"}]}, {"smiles": "CC(C)(C)OC(=O)C1(C(=O)OC(C)(C)C)C2CCCCC21", "note": "(stereo not drawn)", "values": [{"measurement": "T/C", "setting": "dose: 100.0 mg/kg/injection, schedule: Q01DX001 (ip), vehicle: Klucel (hydroxypropylcellulose) (HPC)", "result": "95 % of control"}, {"measurement": "T/C", "setting": "[1]", "result": "101 % of control"}, {"measurement": "T/C", "setting": "dose: 200.0 mg/kg/injection, schedule: Q01DX001 (ip), vehicle: Klucel (hydroxypropylcellulose) (HPC)", "result": "90 % of control"}, {"measurement": "T/C", "setting": "[2]", "result": "101 % of control"}, {"measurement": "T/C", "setting": "dose: 400.0 mg/kg/injection, schedule: Q01DX001 (ip), vehicle: Klucel (hydroxypropylcellulose) (HPC)", "result": "87 % of control"}, {"measurement": "T/C", "setting": "[3]", "result": "96 % of control"}]}, {"smiles": "CCOP(=O)(/C=C/NC1CCCCC1)OCC", "values": [{"measurement": "T/C", "setting": "dose: 50.0 mg/kg/injection, schedule: Q04DX003 (ip), vehicle: saline", "result": "90 % of control"}, {"measurement": "T/C", "setting": "[4]", "result": "109 % of control"}, {"measurement": "T/C", "setting": "dose: 100.0 mg/kg/injection, schedule: Q04DX003 (ip), vehicle: saline", "result": "89 % of control"}, {"measurement": "T/C", "setting": "[5]", "result": "114 % of control"}, {"measurement": "T/C", "setting": "dose: 200.0 mg/kg/injection, schedule: Q04DX003 (ip), vehicle: saline", "result": "101 % of control"}]}, {"smiles": "Cc1ccc(C(=O)C(F)(F)F)cc1", "values": [{"measurement": "T/C", "setting": "[6]", "result": "96 % of control"}, {"measurement": "T/C", "setting": "[7]", "result": "102 % of control"}]}, {"smiles": "Cc1cc(=O)[nH]c(N/N=C/c2ccccc2O)n1", "values": [{"measurement": "T/C", "setting": "dose: 25.0 mg/kg/injection, schedule: Q01DX009 (ip), vehicle: Klucel (hydroxypropylcellulose) (HPC)", "result": "93 % of control"}, {"measurement": "T/C", "setting": "dose: 50.0 mg/kg/injection, schedule: Q01DX009 (ip), vehicle: Klucel (hydroxypropylcellulose) (HPC)", "result": "94 % of control"}, {"measurement": "T/C", "setting": "[4]", "result": "98 % of control"}, {"measurement": "T/C", "setting": "dose: 100.0 mg/kg/injection, schedule: Q01DX009 (ip), vehicle: Klucel (hydroxypropylcellulose) (HPC)", "result": "93 % of control"}, {"measurement": "T/C", "setting": "[1]", "result": "92 % of control"}, {"measurement": "T/C", "setting": "dose: 125.0 mg/kg/injection, schedule: Q01DX Z (ip), vehicle: saline", "result": "97 % of control"}, {"measurement": "T/C", "setting": "[5]", "result": "96 % of control"}, {"measurement": "T/C", "setting": "dose: 200.0 mg/kg/injection, schedule: Q01DX009 (ip), vehicle: Klucel (hydroxypropylcellulose) (HPC)", "result": "95 % of control and 96 % of control"}, {"measurement": "T/C", "setting": "[2]", "result": "94 % of control"}, {"measurement": "T/C", "setting": "dose: 250.0 mg/kg/injection, schedule: Q01DX Z (ip), vehicle: saline", "result": "91 % of control"}, {"measurement": "T/C", "setting": "dose: 400.0 mg/kg/injection, schedule: Q01DX001 (ip), vehicle: saline", "result": "96 % of control"}, {"measurement": "T/C", "setting": "[3]", "result": "94 % of control"}, {"measurement": "T/C", "setting": "dose: 500.0 mg/kg/injection, schedule: Q01DX Z (ip), vehicle: saline", "result": "91 % of control"}, {"measurement": "T/C", "setting": "dose: 1000.0 mg/kg/injection, schedule: Q01DX Z (ip), vehicle: saline", "result": "91 % of control"}]}, {"smiles": "Oc1ccccc1OB(Oc1ccccc1O)N(CCCl)CCCl", "values": [{"measurement": "T/C", "setting": "dose: 100.0 mg/kg/injection, schedule: Q01DX001 (ip), vehicle: other", "result": "111 % of control"}]}, {"smiles": "Cn1ccc(=O)c2cc([N+](=O)[O-])ccc21", "values": [{"measurement": "T/C", "setting": "dose: 25.0 mg/kg/injection, schedule: Q01DX009 (ip), vehicle: water", "result": "90 % of control"}, {"measurement": "T/C", "setting": "dose: 50.0 mg/kg/injection, schedule: Q01DX009 (ip), vehicle: water", "result": "93 % of control"}, {"measurement": "T/C", "setting": "dose: 100.0 mg/kg/injection, schedule: Q01DX009 (ip), vehicle: water", "result": "86 % of control"}, {"measurement": "T/C", "setting": "dose: 100.0 mg/kg/injection, schedule: Q04DX002 (ip), vehicle: saline with Tween-80", "result": "104 % of control and 106 % of control"}, {"measurement": "T/C", "setting": "[6]", "result": "115 % of control and 90 % of control"}, {"measurement": "T/C", "setting": "dose: 200.0 mg/kg/injection, schedule: Q01DX009 (ip), vehicle: water", "result": "95 % of control"}, {"measurement": "T/C", "setting": "dose: 200.0 mg/kg/injection, schedule: Q04DX002 (ip), vehicle: saline with Tween-80", "result": "109 % of control and 87 % of control"}, {"measurement": "T/C", "setting": "[7]", "result": "97 % of control and 102 % of control"}, {"measurement": "T/C", "setting": "dose: 400.0 mg/kg/injection, schedule: Q04DX002 (ip), vehicle: saline with Tween-80", "result": "87 % of control and 88 % of control"}, {"measurement": "T/C", "setting": "dose: 400.0 mg/kg/injection, schedule: Q04DX003 (ip), vehicle: saline with Tween-80", "result": "88 % of control"}]}]}
